Measurements taken from patent publication US10858352B2, “Pharmaceutical compounds” (Heptares Therapeutics Limited, priority 2018, dated 2020).
Like-named read-outs stand apart in the source and are kept apart here.

Assays:
Assay type in all cases: cell-based
[1] = target: T1, human muscarinic M4 receptor (Homo sapiens, UniProt P08173); assay: Alphascreen Surefire phospho-ERK1/2 functional assay, M4; details: for % Emax cf. ACh (M4) / Emax: Emax relative to ACh; for pEC50 M4 / EC50: agonist 5 min, 37° C.; for Emax: CHO, read-out: % Emax cf. ACh (M4), CHO cells stably expressing human M4
T1 construct: expressed in transfected cells
T1 sequence (P08173 1-479): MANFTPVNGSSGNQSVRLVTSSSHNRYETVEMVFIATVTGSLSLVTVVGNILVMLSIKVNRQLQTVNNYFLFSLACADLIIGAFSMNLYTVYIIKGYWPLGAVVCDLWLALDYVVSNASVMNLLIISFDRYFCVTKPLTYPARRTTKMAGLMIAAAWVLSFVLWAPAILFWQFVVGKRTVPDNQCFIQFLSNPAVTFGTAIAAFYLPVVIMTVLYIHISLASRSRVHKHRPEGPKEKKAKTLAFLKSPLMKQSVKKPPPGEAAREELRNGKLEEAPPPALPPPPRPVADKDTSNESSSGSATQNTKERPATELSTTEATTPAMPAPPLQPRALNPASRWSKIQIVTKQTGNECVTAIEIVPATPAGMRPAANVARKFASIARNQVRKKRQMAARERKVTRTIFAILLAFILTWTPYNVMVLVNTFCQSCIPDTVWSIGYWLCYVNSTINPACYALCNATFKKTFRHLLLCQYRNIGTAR
Method: (§1) ERK1/2 phosphorylation is a downstream consequence of both Gq/11 and Gi/o protein coupled receptor activation, making it highly suitable for the assessment of M1, M3 (Gq/11 coupled) and M2, M4 receptors (Gi/o coupled), rather than using different assay formats for different receptor subtypes. CHO cells stably expressing the human muscarinic M1, M2, M3 or M4 receptor were plated (25K/well) onto 96-well tissue culture plates in MEM-alpha+10% dialysed FBS. Once adhered, cells were serum-starved overnight. Agonist stimulation was performed by the addition of 5 μL agonist to the cells for 5 min (37° C.). Media was removed and 50 μL of lysis buffer added. After 15 min, a 4 μL sample was transferred to 384-well plate and 7 μL of detection mixture added. […]

[2] = target: T2, human muscarinic M2 receptor (Homo sapiens, UniProt P08172); assay: Alphascreen Surefire phospho-ERK1/2 functional assay, M2; details: for Emax: CHO
T2 sequence (P08172 1-466): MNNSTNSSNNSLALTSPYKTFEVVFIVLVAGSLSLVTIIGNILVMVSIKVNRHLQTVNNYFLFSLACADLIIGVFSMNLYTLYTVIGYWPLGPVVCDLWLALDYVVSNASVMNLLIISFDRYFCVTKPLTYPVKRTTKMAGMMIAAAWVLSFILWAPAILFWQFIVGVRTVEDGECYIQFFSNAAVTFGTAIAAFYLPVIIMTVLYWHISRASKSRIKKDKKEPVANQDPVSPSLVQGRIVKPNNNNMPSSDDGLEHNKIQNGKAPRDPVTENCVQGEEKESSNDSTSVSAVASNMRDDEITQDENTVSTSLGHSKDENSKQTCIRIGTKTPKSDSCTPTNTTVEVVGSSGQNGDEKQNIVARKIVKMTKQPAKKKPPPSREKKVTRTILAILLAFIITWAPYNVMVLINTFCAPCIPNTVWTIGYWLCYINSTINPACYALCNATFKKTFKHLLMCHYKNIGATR
Method: as §1

[3] = target: T3, human muscarinic M3 receptor (Homo sapiens, UniProt P20309); assay: Alphascreen Surefire phospho-ERK1/2 functional assay, M3; details: for Emax: CHO
T3 construct: expressed in transfected cells
T3 sequence (P20309 whole entry): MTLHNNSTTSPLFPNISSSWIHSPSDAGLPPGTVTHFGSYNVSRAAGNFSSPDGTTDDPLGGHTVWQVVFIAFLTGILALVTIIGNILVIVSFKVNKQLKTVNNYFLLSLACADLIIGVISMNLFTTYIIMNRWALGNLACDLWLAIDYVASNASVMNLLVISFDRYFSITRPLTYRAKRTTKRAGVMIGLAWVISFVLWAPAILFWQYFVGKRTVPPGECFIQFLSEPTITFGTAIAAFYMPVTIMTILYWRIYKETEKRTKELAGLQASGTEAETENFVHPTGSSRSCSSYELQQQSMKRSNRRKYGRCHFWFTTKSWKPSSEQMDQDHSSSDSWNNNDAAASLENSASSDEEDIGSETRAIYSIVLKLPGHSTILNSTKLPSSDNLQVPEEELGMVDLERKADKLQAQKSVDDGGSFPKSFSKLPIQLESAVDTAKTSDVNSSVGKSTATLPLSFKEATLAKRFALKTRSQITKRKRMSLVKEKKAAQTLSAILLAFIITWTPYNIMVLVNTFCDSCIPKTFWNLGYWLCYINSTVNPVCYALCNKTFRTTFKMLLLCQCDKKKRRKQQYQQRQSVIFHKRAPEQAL
Method: as §1

[4] = target: T4, human muscarinic M1 receptor (Homo sapiens, UniProt P11229); assay: Alphascreen Surefire phospho-ERK1/2 functional assay, M1; details: for pEC50 M1 / EC50: agonist 5 min, 37° C.; for Emax: CHO
T4 sequence (P11229 1-460): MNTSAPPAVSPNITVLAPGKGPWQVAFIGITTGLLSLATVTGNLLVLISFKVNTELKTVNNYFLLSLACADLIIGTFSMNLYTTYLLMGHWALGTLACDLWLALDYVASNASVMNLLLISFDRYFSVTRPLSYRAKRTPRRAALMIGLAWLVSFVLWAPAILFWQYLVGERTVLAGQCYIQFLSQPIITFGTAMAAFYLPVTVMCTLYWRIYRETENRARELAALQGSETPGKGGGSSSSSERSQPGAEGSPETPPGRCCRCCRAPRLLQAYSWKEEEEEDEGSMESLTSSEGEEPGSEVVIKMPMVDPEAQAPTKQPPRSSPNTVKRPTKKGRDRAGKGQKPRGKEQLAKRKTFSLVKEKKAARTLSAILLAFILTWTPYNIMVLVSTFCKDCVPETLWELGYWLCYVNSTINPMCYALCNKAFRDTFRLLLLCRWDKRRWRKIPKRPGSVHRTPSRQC
Method: as §1

[5] = CHO cells stably expressing human M4
[6] = CHO cells stably expressing human M2, Emax relative to ACh
[7] = CHO cells stably expressing human M2, agonist 5 min, 37° C.
[8] = CHO cells stably expressing human M3, Emax relative to ACh
[9] = CHO cells stably expressing human M3, agonist 5 min, 37° C.
[10] = CHO cells stably expressing human M1, Emax relative to ACh
[11] = CHO cells stably expressing human M1
[12] = CHO cells stably expressing human M4, read-out: pEC50 M4 (converted)
[13] = CHO cells stably expressing human M2, agonist 5 min, 37° C., read-out: pEC50 M2 (converted)
[14] = CHO cells stably expressing human M3, agonist 5 min, 37° C., read-out: pEC50 M3 (converted)
[15] = CHO cells stably expressing human M1, read-out: pEC50 M1 (converted)

## CCN(CC)C(=O)[C@H]1[C@@H]2CN(C3CC4CCC(C3)N4c3nc(C)no3)C[C@@H]21 (single isomer, unassigned; isomer 2) [12-25 Isomer 2]
[1]; [5]
  % Emax cf. ACh (M4): (119) %
  pEC50 M4: 6.82
[2]; [6]
  % Emax cf. ACh (M2): (84) %
[2]; [7]
  pEC50 M2: 6.15
[3]; [8]
  % Emax cf. ACh (M3): (57) %
[3]; [9]
  pEC50 M3: 5.29
[4]; [10]
  % Emax cf. ACh (M1): (91) %
[4]; [11]
  pEC50 M1: 8.55

## Cc1noc(N2C3CCC2CC(N2CCC4(CC2)CNC(=O)O4)C3)n1 (single isomer, unassigned) [6-4 Isomer 2]
[1]; [5]
  % Emax cf. ACh (M4): (39) %
[1]; [12]
  EC50: 525 nM
[2]; [13]
  EC50: > 20000 nM
[2]; read-out: % Emax cf. ACh (M2)
  Emax: 5%
[3]; [14]
  EC50: > 20000 nM
[3]; read-out: % Emax cf. ACh (M3)
  Emax: 32%
[4]; [10]
  % Emax cf. ACh (M1): (87) %
[4]; [15]
  EC50: 257 nM

## CCN(CC)C(=O)[C@H]1[C@@H]2CN(C3CC4COCC(C3)N4c3nc(C(F)(F)F)no3)C[C@@H]21 (single isomer, unassigned; isomer 2) [12-23 Isomer 2]
[1]; [5]
  % Emax cf. ACh (M4): (30) %
  pEC50 M4: 6.92
[2]; [6]
  % Emax cf. ACh (M2): (13) %
[2]; [7]
  pEC50 M2: <4.70
[3]; [8]
  % Emax cf. ACh (M3): (25) %
[3]; [9]
  pEC50 M3: <4.70
[4]; [10]
  % Emax cf. ACh (M1): (132) %
[4]; [11]
  pEC50 M1: 7.59

## Cc1noc(N2CCCC(N3CCC(N4C[C@H](F)C[C@@H]4CO)CC3)CC2)n1 (single isomer, unassigned) [10-7 Isomer 1]
[1]; [12]
  EC50: 105 nM
[1]
  Emax: 89%
[2]; [13]
  EC50: > 20000 nM
[2]; read-out: % Emax cf. ACh (M2), CHO cells stably expressing human M2, Emax relative to ACh
  Emax: 15%
[3]; [14]
  EC50: > 20000 nM
[3]; read-out: % Emax cf. ACh (M3), CHO cells stably expressing human M3, Emax relative to ACh
  Emax: 2%
[4]; [10]
  % Emax cf. ACh (M1): (44) %
[4]; [15]
  EC50: 3720 nM

## CC(=O)N(CC1(C)CCC1)C1CCN(C2CC3CCC(C2)N3c2nc(C)no2)CC1 (single isomer, unassigned; isomer 1) [12-18 Isomer 1]
[1]; [5]
  % Emax cf. ACh (M4): (62) %
  pEC50 M4: 6.68
[2]; [6]
  % Emax cf. ACh (M2): (27) %
[2]; [7]
  pEC50 M2: 5.23
[3]; [8]
  % Emax cf. ACh (M3): (15) %
[3]; [9]
  pEC50 M3: <4.70
[4]; [10]
  % Emax cf. ACh (M1): (87) %
[4]; [11]
  pEC50 M1: 7.00

## Cc1noc(N2CCC3(CC(N4CCC(C#N)(c5ccccc5)CC4)C3)C2)n1 (single isomer, unassigned) [2-2 Isomer 2]
[1]
  Emax: 51%
[1]; pEC50 M4, CHO cells stably expressing human M4
  EC50: 117 nM
[2]
  EC50: > 20000 nM
[2]; read-out: % Emax cf. ACh (M2)
  Emax: 2%
[3]
  EC50: > 20000 nM
[3]; read-out: % Emax cf. ACh (M3)
  Emax: 3%
[4]; read-out: % Emax cf. ACh (M1)
  Emax: 40%
[4]; pEC50 M1, CHO cells stably expressing human M1
  EC50: 741 nM

## O=C1CC2(CCN(C3CC4CCC(C3)N4c3nc(C(F)(F)F)no3)CC2)CN1 (single isomer, unassigned; isomer 2) [12-3 Isomer 2]
[1]; [5]
  % Emax cf. ACh (M4): (23) %
  pEC50 M4: 6.70
[2]; [6]
  % Emax cf. ACh (M2): (14) %
[2]; [7]
  pEC50 M2: <4.70
[3]; [8]
  % Emax cf. ACh (M3): (70) %
[3]; [9]
  pEC50 M3: <4.70
[4]; [10]
  % Emax cf. ACh (M1): (103) %
[4]; [11]
  pEC50 M1: 8.30

## Cc1noc(N2C3COCC2CC(N2CCC(n4cccn4)CC2)C3)n1 (single isomer, unassigned) [9-1 Isomer 1]
[1]; [12]
  EC50: 105 nM
[1]
  Emax: 77%
[2]; [13]
  EC50: > 20000 nM
[2]; read-out: % Emax cf. ACh (M2)
  Emax: 21%
[3]; [14]
  EC50: > 20000 nM
[3]; read-out: % Emax cf. ACh (M3)
  Emax: 1%
[4]; [15]
  EC50: > 20000 nM
[4]; read-out: % Emax cf. ACh (M1), CHO cells stably expressing human M1, Emax relative to ACh
  Emax: 15%
